Results as given in patent US6365414B1, “Vitro system for determining formation of Aβ amyloid” (The General Hospital Corporation, priority 1994, dated 2002).
Like-named read-outs stand apart in the source and are kept apart here. Values belong to the compound of their own block, whether it stands above or below them.

Key:
[1] = ^65Zn^2+ dot-blot binding to immobilized Aβ peptides (Scatchard / competition); details: for zinc binding (in words): dot-blot or blot of tryptic digest, ^65Zn^2+
Procedure: ^65Zn^2+ Binding Studies—Dissolved peptides (1.2 nMol, unless otherwise stated) were dot-blotted onto 0.2-μm polyvinylidene difluoride membrane (Pierce Chemical Co.), washed twice with chelating buffer (200 μl×100 mM NaCl, 20 mM Tris-HCl, 1 mM EDTA, pH 7.4), then five times with blocking buffer (200 μl×100 mM NaCl, 20 mM Tris-HCl, 1 mM MnCl2, pH 7.4), and then incubated (60 min, 20° C.) with ^65Zn (unless otherwise stated 130,000 cpm, […] ^65ZnCl2 in 200 μl of blocking buffer±competing metal ion chloride). The dot-blot was then washed with blocking buffer (5×200 μl), the dot excised, placed in a test tube, and assayed by γ-counting (11% efficiency). The equilibration volume for stoichiometry estimates was regarded as 6×200 μl. The 214 nm UV absorbance of the unbound flow-through was assayed to determine the total amount of peptide remaining bound onto the membrane. […] To alter the pH, the ^65Zn incubation was carried out in the presence of 100 mM buffer: MOPS (pH 6.5-7.0), MES (pH 5.0-6.0), acetate (pH 3.5-4.5). The dot-blot apparatus was washed with detergent and EDTA (50 mM) then rinsed and siliconized between use.
Aliquots of Aβ were incubated (60 min) with ^65Zn^2+ in the presence of varying concentrations of unlabeled Zn^2+ (0.01-50 μM total). Values shown are means±S.D., n≧3. […] (FIG. 1b) depicts specificity of the Zn^2+ binding site for various metals. Aβ was incubated (60 min) with ^65Zn^2+ (157 nM, 138,000 cpm) and competing unlabeled metal ions (50 μM total). […] Percent binding of total counts ^65Zn^2+/min added is corrected for the amounts (in nanomoles) of peptides adhering to the membrane. (FIG. 1d) depicts as for 1a, with Aβ1-28 peptide substituting for Aβ1-40. 157 nM ^65Zn (138,000 cpm) is used in this experiment to probe immobilized peptide (1.6 nmol). (FIG. 1e) depicts pH dependence of […] binding to Aβ1-40.

Aβ1-40 = biological target: T1, Aβ1-40 (Homo sapiens, UniProt P05067); assay: Tryptic digestion of Aβ1-40 after incubation with Zn^2+; type: biochemical
T1 construct: Aβ1-40 (13.9 μg) was incubated with; purchased Bachem; Sigma (also synthesized by the W. M. Keck Foundation laboratory, Yale); host or cells: chemical synthesis
T1 sequence (P05067 672-711 limits assumed): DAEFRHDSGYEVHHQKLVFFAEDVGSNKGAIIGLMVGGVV

Aβ [2] = biological target: T2, Aβ (Homo sapiens, UniProt P05067); assay: G50 gel filtration chromatography of Aβ with metal ions or EDTA; details: for less total peptide eluted compared with EDTA profile / effect on Aβ recoverable by chromatography (in words): metal 25 μM
T2 construct: purchased Bachem; Sigma (also synthesized by the W. M. Keck Foundation laboratory, Yale); host or cells: chemical synthesis
T2 sequence (P05067 672-711 limits assumed): as above
Procedure: Aβ was stored in aliquots of 0.52 mg/ml in water at −20° C., then kept at 4° C. when thawed. Reagents were mixed without vortex mixing. The incubated Aβ was directly applied to a G50 SF (Pharmacia, Uppsala, Sweden) column (Bio-Rad Econo-Column, 30×0.7 cm) pre-equilibrated with metal salt solution or EDTA (50 μM) in TBS at 20° C. and eluted at 8 ml/h (Wiz peristaltic pump, Isco, Lincoln, Nebr.). Absorbance was measured at 254 and 214 nm (Type 6 optical unit, Isco). The amount of Aβ eluting at various peaks was estimated from the area under the curve. […] Because the sample eluted in a volume of approximately 15 ml, the average concentration of the peptide on the column was 0.8 μM.
To study the effects of protein blocking upon adsorption of Aβ to the chromatography column, a Sephadex G50 SF column which had been characterized previously for Aβ behavior was eluted with 3% bovine serum albumin (BSA) in TBS (50 ml) and equilibrated with non-BSA-containing buffer, subsequent to repeating the Aβ experiments.
The elution points of molecular mass standards and relative assignments of Aβ peak elutions are indicated. Mass standards were blue dextran (2×10^6 kDa, V0=void volume), BSA (66 kDa), carbonic anhydrase (29 kDa), cytochrome c (12.4 kDa), and aprotinin (6.5 kDa). The mass of Aβ is 4.3 kDa. […] Data for experiments performed in the presence of copper were taken from 214 nm readings and corrected for comparison.

[3] = Aβ binding to kaolin (aluminum silicate); type: physicochemical; details: metal 25 μM
Procedure: Aβ Binding to Kaolin (Aluminum Silicate)—Kaolin suspension was prepared in high performance liquid chromatography water (Fisher), defined, and adjusted to 50% (v/v). Aβ (40 μg) was incubated in siliconized reaction vessels with either kaolin or Sephadex G50 SF (10 μl×50% (v/v)) in Cu^2+, Zn^2+, or EDTA (100 μl in TBS, 5 min, room temperature). The suspension was then pelleted (1500×g, 3 min) and the supernatant removed and diluted 20-fold with water to bring the UV absorbance readings into the linear range. Samples were assayed at 214 nm before and after incubation with kaolin or Sephadex.
(FIG. 3a) depicts concentration (by 214 nm absorbance) of Aβ remaining in supernatant after incubation with 10 mg of G50 Sephadex. (FIG. 3b) depicts concentration (by 214 nm absorbance) of Aβ remaining in supernatant after incubation with 10 mg of kaolin, expressed as percent of the starting absorbance.

Aβ [4] = biological target: T2, Aβ; assay: SDS Tris/Tricine gel electrophoresis of Aβ incubated with Zn^2+; details: Zn^2+ 200 μM, 1-24 h, 20° C.
trypsin = assay: Trypsin activity, Z-Arg-amido-4-methylcoumarin cleavage; type: biochemical
[5] = human, in vivo
[6] = centrifugation studies; cited from earlier work
[7] = neutral pH; cited from earlier work
[8] = Size estimation of Aβ aggregates with filters of various pore sizes, ^65Zn tracer, EDTA wash; type: physicochemical
Procedure: FIGS. 7a, 7b, 7c and 7d. Size estimation of zinc-induced Aβ aggregates. […] By determining the amounts of Aβ1-40 and ^65Zn in the filtrate, the quantities retarded by the filters could be determined, and the stoichiometry of the zinc: Aβ assemblies estimated. (7d) Bar graph. […] The amounts of zinc-precipitated Aβ1-40 resolubilized in the filtrate fraction were determined by OD214, and expressed as a percentage of the amount originally retained by the respective filters. ^65Zn released into the filtrate was measured by γ-counting.
By determining the amounts of Aβ1-40 and ^65Zn in the filtrate, the quantities retarded by the filters could be determined, and the stoichiometry of the zinc: Aβ assemblies estimated. […] The amounts of zinc-precipitated Aβ1-40 resolubilized in the filtrate fraction were determined by OD214, and expressed as a percentage of the amount originally retained by the respective filters. ^65Zn released into the filtrate was measured by γ-counting.

[9] = Tinctorial amyloid formation (Congo Red, polarized light); type: physicochemical
Procedure: Zinc-induced tinctorial amyloid formation. […] Unbound dye was removed, the pellet washed with buffer 1 (100 mM NaCl, 20 mM Tris-HCl, pH 7.4) and mounted for microscopy.
Unbound dye was removed, the pellet washed with buffer 1 (100 mM NaCl, 20 mM Tris-HCl, pH 7.4) and mounted for microscopy.

zinc binding (in words) [1]: binds zinc
Compound: 6-40: 3.6 kDa tryptic digestion product of Aβ1-40

zinc binding (in words) [1]: does not bind zinc
Compound: 17-40: 2.1 kDa tryptic digestion product of Aβ1-40, post-secretase carboxyl-terminal product (LVFFAEDVGSNKGAIIGLMVGGVV; Amyloid-beta protein 40; UniProt P05067 688-711, looked up, fragment) [reference compound]
effect of zinc on the rate of tryptic digestion of the peptide (Aβ1-40; increasing zinc concentrations): not inhibited by increasing zinc concentrations

zinc binding (in words) [1]: unable to bind zinc
Compound: 25-35: Aβ fragment covering a region of the carboxyl terminus, residues 25-35 (GSNKGAIIGLM; Amyloid-beta protein 40; UniProt P05067 696-706, looked up, fragment)

Compound: [Ag+2] [Ag^2+]
less total peptide eluted compared with EDTA profile (Aβ [2]): 40%

Compound: [Al+3] [Al^3+]
effect on Aβ recoverable by chromatography (in words) (Aβ [2]): partial effects on Aβ solubility comparable with 3 μM total Zn^2+

Compound: [Ba+2] [Ba^2+]
less total peptide eluted compared with EDTA profile (Aβ [2]): 40%

Compound: [Ca+2] [Ca^2+]
less total peptide eluted compared with EDTA profile (Aβ [2]): 40%

Aβ dimerization (Aβ [2]; 25 μM total): dramatic increase in Aβ dimerization
Compound: [Cu+2] [Cu^2+]

Compound: [Mg+2] [Mg^2+]
less total peptide eluted compared with EDTA profile (Aβ [2]): 40%

Compound: [Pb+2] [Pb^2+]
effect on Aβ recoverable by chromatography (in words) (Aβ [2]): most strongly promotes the elution of the monomeric peptide, abolishing high order polymers

abolition of ^65Zn^2+ binding to Aβ ([1]; 150 mM Tris): ≈ 50% | abolition of ^65Zn^2+ binding to Aβ ([1]; 500 mM Tris): ≈ 95%
Compound: NC(CO)(CO)CO [Tris]

Compound: [Zn+2] [Zn^2+]
competition of unlabeled metal ions for ^65Zn^2+ label on Aβ ([1]; competing metal 50 μM total, ^65Zn^2+ 157 nM): the only unlabeled metal ion tested that is capable of competing off the label | Aβ eluting from the column (Aβ [2]; 25 μM total Zn^2+): < 20% | lowest total concentration that decreases recoverable Aβ (Aβ [2]; compared with EDTA profile): 0.4 µM | effect on kaolin-induced Aβ precipitation relative to EDTA [3]: nearly half of the amount recovered from the EDTA incubation supernatant | covalent or SDS-resistant polymerization of Aβ (Aβ [4]): does not induce covalent or SDS-resistant polymerization of Aβ | inhibition of tryptic Aβ hydrolysis (Aβ1-40; 200 μM Zn^2+): complete inhibition of Aβ hydrolysis | inhibition of tryptic activity (trypsin; 200 μM): 12% | effect on the activity of trypsin (trypsin; up to 100 μM in TBS): negligible | induction of aggregation of human Aβ1-40 by metal ions (metal ions 3 μM, Aβ1-40 […]): the only one of several metal ions tested on an equimolar basis, including Al^3+, to induce significant aggregation of human Aβ1-40 | effect on cognition of age-matched control subjects [5]: remained unaffected by the dose | reversibility of changes [5]: rapidly reversible following cessation of the four day supplementation | time to acute decline in cognition [5]: forty-eight | drop in Mini-Mental State Examination scores ([5]; po): 31%

^65Zn^2+ binding compared with Aβ1-40 ([1]; ^65Zn^2+ 74 nM, FIG. 1c): 30 % of Bmax
Compound: Aβ1-28: Aβ fragment, residues 1-28

Compound: ^125I-Aβ1-40: human Aβ1-40 tracer iodinated on the tyrosine residue at position 10
Zn^2+ concentration required to precipitate the peptide [6]: 1 mM

zinc binding (in words) [1]: does not interfere with ^65Zn^2+ binding
Compound: gln11: Aβ1-28 where residue 11 is glutamine (DAEFRHDSGYQVHHQKLVFFAEDVGSNK; Amyloid-beta protein 40; UniProt P05067 672-699, looked up, variant E11Q)

Compound: insulin: peptide whose zinc binding properties are well characterized
stoichiometric ratio Zn^2+:insulin at which the peptide precipitates [7]: > 0.33

Compound: rat Aβ1-40: rat/mouse species of Aβ1-40; Arg→Gly, Tyr→Phe and His→Arg at positions 5, 10 and 13 (DAEFGHDSGFEVRHQKLVFFAEDVGSNKGAIIGLMVGGVV; Amyloid-beta protein 40; UniProt P08592 672-711, looked up)
increase of >0.1μ particles following incubation with Zn^2+ ([8]; Zn^2+ 25 μM versus EDTA): 20% | increase of >0.22μ particles following incubation with Zn^2+ ([8]; Zn^2+ 25 μM versus EDTA): 30% | proportion as >0.65μ particles ([8]; Zn^2+ 25 μM, peptide […]): increased only slightly | Zn^2+ concentration that induces amyloid by tinctorial criteria [9]: ≥ 10 µM | Congo Red-stained material after incubation with EDTA ([9]; EDTA 50 μM instead of Zn^2+): In neither case was Congo Red-stained material detected | tinctorial amyloid formation (in words) ([9]; Zn^2+ 25 μM, 30 min, 37° C.): significantly fewer and smaller particles, with minimal birefringence | peptide aggregated into >0.2μ particles (EDTA, higher peptide concentrations): ≈ 15% | peptide aggregated into >0.2μ particles (EDTA, peptide 0.8 μM): no detectable aggregation | peptide aggregated into >0.2μ particles (Zn^2+ 25 μM, peptide 0.8 μM): no aggregation | peptide aggregated into >0.2μ particles (Zn^2+ 25 μM, peptide 4 μM): 25%
